Results as given in patent publication US11767341B2, “Lincosamide antibiotics and uses thereof” (President and Fellows of Harvard College, priority 2017, dated 2023).
In brackets after ≈: the same amount, converted by molar mass.

System: S. aureus ATCC 29213
Assay: MIC determination
Type: cell-based
Settings: Staphylococcus aureus, ATCC29213, S. aureus ATCC 29213; read-out: MIC

For `CSC1O[C@H]([C@H](NC(=O)[C@H]2NC[C@@H]3C[C@H](c4ccc(C#N)cc4)CCO[C@H]32)[C@H](C)Cl)C(O)[C@@H](O)[C@H]1O` (stereo partly shown) [FSA-512081b], which MIC is on record?
Its MIC is 0.25 µg/mL (≈ 0.463 µM).

With `CSC1O[C@H]([C@H](NC(=O)[C@H]2NC[C@@H]3CC(NCc4ccc(F)cc4)CCO[C@H]32)[C@H](C)Cl)C(O)[C@@H](O)[C@H]1O` (stereo partly shown) [FSA-510074] as the compound, how does the MIC read?
Its MIC is 64 µg/mL (≈ 114 µM).

System: S. aureus BAA 977 iErmA
Assay: MIC determination
Type: cell-based
Settings: Staphylococcus aureus, BAA977

How did the MIC turn out when `CSC1O[C@H]([C@H](NC(=O)[C@H]2NC[C@@H]3C[C@H](c4ccc(C#N)cc4)CCO[C@H]32)[C@H](C)Cl)C(O)[C@@H](O)[C@H]1O` (stereo partly shown) [FSA-512081b] was run?
Its MIC is 1 µg/mL (≈ 1.85 µM).

System: S. aureus MP-549 msr(a) USA 300
Assay: MIC determination
Type: cell-based
Settings: Staphylococcus aureus, USA300, S. aureus MP-549 msr(a) USA 300

`CSC1O[C@H]([C@H](NC(=O)[C@H]2NC[C@@H]3C[C@H](c4ccc(C#N)cc4)CCO[C@H]32)[C@H](C)Cl)C(O)[C@@H](O)[C@H]1O` (stereo partly shown) [FSA-512081b] was tested. Which MIC did it give?
The MIC was 1 µg/mL (≈ 1.85 µM).

Which MIC does the source give for `CSC1O[C@H]([C@H](NC(=O)[C@H]2NC[C@@H]3CC(NCc4ccc(F)cc4)CCO[C@H]32)[C@H](C)Cl)C(O)[C@@H](O)[C@H]1O` (stereo partly shown) [FSA-510074] here?
The MIC was 64 µg/mL (≈ 114 µM).

System: S. aureus MMX 3035 cErmA
Assay: MIC determination
Type: cell-based
Settings: Staphylococcus aureus, MMX3035CERMA; S. aureus MMX 3035 cErmA; read-out: MIC

Which MIC does the source give for `CSC1O[C@H]([C@H](NC(=O)[C@H]2NC[C@@H]3C[C@H](c4ccc(C#N)cc4)CCO[C@H]32)[C@H](C)Cl)C(O)[C@@H](O)[C@H]1O` (stereo partly shown) [FSA-512081b] here?
Its MIC is 128 µg/mL (≈ 237 µM).

System: S. pneumoniae ATCC 49619
Assay: MIC determination
Type: cell-based
Settings: Streptococcus pneumoniae, ATCC49619; S. pneumoniae ATCC 49619; read-out: MIC

For `CSC1O[C@H]([C@H](NC(=O)[C@H]2NC[C@@H]3C[C@H](c4ccc(C#N)cc4)CCO[C@H]32)[C@H](C)Cl)C(O)[C@@H](O)[C@H]1O` (stereo partly shown) [FSA-512081b], which MIC is on record?
The MIC was no more than 0.06 µg/mL.

Which MIC does the source give for `CSC1O[C@H]([C@H](NC(=O)[C@H]2NC[C@@H]3CC(NCc4ccc(F)cc4)CCO[C@H]32)[C@H](C)Cl)C(O)[C@@H](O)[C@H]1O` (stereo partly shown) [FSA-510074] here?
The MIC was 32 µg/mL (≈ 56.9 µM).

System: S. pneumoniae MMX 3028 cErmB
Assay: MIC determination
Type: cell-based
Settings: Streptococcus pneumoniae, MMX3028CERMB

Which MIC does the source give for `CSC1O[C@H]([C@H](NC(=O)[C@H]2NC[C@@H]3C[C@H](c4ccc(C#N)cc4)CCO[C@H]32)[C@H](C)Cl)C(O)[C@@H](O)[C@H]1O` (stereo partly shown) [FSA-512081b] here?
The MIC was 16 µg/mL (≈ 29.6 µM).

System: S. pneumoniae MMX 3031 cMefA
Assay: MIC determination
Type: cell-based
Settings: Streptococcus pneumoniae, MMX3031CMEFA

With `CSC1O[C@H]([C@H](NC(=O)[C@H]2NC[C@@H]3C[C@H](c4ccc(C#N)cc4)CCO[C@H]32)[C@H](C)Cl)C(O)[C@@H](O)[C@H]1O` (stereo partly shown) [FSA-512081b] as the compound, how does the MIC read?
The MIC was 0.12 µg/mL (≈ 0.222 µM).

System: S. pyogenes ATCC 19615
Assay: MIC determination
Type: cell-based
Settings: Streptococcus pyogenes, ATCC19615; S. pyogenes ATCC 19615; read-out: MIC

Which MIC does the source give for `CSC1O[C@H]([C@H](NC(=O)[C@H]2NC[C@@H]3C[C@H](c4ccc(C#N)cc4)CCO[C@H]32)[C@H](C)Cl)C(O)[C@@H](O)[C@H]1O` (stereo partly shown) [FSA-512081b] here?
Its MIC is no more than 0.06 µg/mL.

`CSC1O[C@H]([C@H](NC(=O)[C@H]2NC[C@@H]3CC(NCc4ccc(F)cc4)CCO[C@H]32)[C@H](C)Cl)C(O)[C@@H](O)[C@H]1O` (stereo partly shown) [FSA-510074] was tested. Which MIC did it give?
The MIC was 8 µg/mL (≈ 14.2 µM).

System: S. pyogenes MMX 946 Macrolide-Resistant
Assay: MIC determination
Type: cell-based
Settings: Streptococcus pyogenes

`CSC1O[C@H]([C@H](NC(=O)[C@H]2NC[C@@H]3C[C@H](c4ccc(C#N)cc4)CCO[C@H]32)[C@H](C)Cl)C(O)[C@@H](O)[C@H]1O` (stereo partly shown) [FSA-512081b] was tested. Which MIC did it give?
The MIC was 32 µg/mL (≈ 59.3 µM).

System: E. faecalis ATCC 29212
Assay: MIC determination
Type: cell-based
Settings: Enterococcus faecalis, ATCC29212

`CSC1O[C@H]([C@H](NC(=O)[C@H]2NC[C@@H]3CC(NCc4ccc(F)cc4)CCO[C@H]32)[C@H](C)Cl)C(O)[C@@H](O)[C@H]1O` (stereo partly shown) [FSA-510074] was tested. Which MIC did it give?
The MIC was greater than 64 µg/mL.

Same assay, conditions: Enterococcus faecalis, ATCC29212, read-out: MIC

For `CSC1O[C@H]([C@H](NC(=O)[C@H]2NC[C@@H]3C[C@H](c4ccc(C#N)cc4)CCO[C@H]32)[C@H](C)Cl)C(O)[C@@H](O)[C@H]1O` (stereo partly shown) [FSA-512081b], which MIC is on record?
The MIC was 1 µg/mL (≈ 1.85 µM).

System: E. faecalis MMX 847 Macrolide-Resistant
Assay: MIC determination
Type: cell-based
Settings: Enterococcus faecalis; E. faecalis MMX 847 MacRes; read-out: MIC

`CSC1O[C@H]([C@H](NC(=O)[C@H]2NC[C@@H]3C[C@H](c4ccc(C#N)cc4)CCO[C@H]32)[C@H](C)Cl)C(O)[C@@H](O)[C@H]1O` (stereo partly shown) [FSA-512081b] was tested. Which MIC did it give?
Its MIC is 128 µg/mL (≈ 237 µM).

System: K. pneumoniae ATCC 10031
Assay: MIC determination
Type: cell-based
Settings: Klebsiella pneumoniae, ATCC10031

For `CSC1O[C@H]([C@H](NC(=O)[C@H]2NC[C@@H]3CC(NCc4ccc(F)cc4)CCO[C@H]32)[C@H](C)Cl)C(O)[C@@H](O)[C@H]1O` (stereo partly shown) [FSA-510074], which MIC is on record?
The MIC was greater than 64 µg/mL.

System: E. coli ATCC 25922
Assay: MIC determination
Type: cell-based
Settings: Escherichia coli, ATCC25922

With `CSC1O[C@H]([C@H](NC(=O)[C@H]2NC[C@@H]3CC(NCc4ccc(F)cc4)CCO[C@H]32)[C@H](C)Cl)C(O)[C@@H](O)[C@H]1O` (stereo partly shown) [FSA-510074] as the compound, how does the MIC read?
Its MIC is greater than 64 µg/mL.

Same assay, conditions: Escherichia coli, ATCC25922, E. coli ATCC 25922; read-out: MIC

How did the MIC turn out when `CSC1O[C@H]([C@H](NC(=O)[C@H]2NC[C@@H]3C[C@H](c4ccc(C#N)cc4)CCO[C@H]32)[C@H](C)Cl)C(O)[C@@H](O)[C@H]1O` (stereo partly shown) [FSA-512081b] was run?
Its MIC is 128 µg/mL (≈ 237 µM).

System: E. coli MP-9 ΔTolC
Assay: MIC determination
Type: cell-based
Settings: Escherichia coli

For `CSC1O[C@H]([C@H](NC(=O)[C@H]2NC[C@@H]3C[C@H](c4ccc(C#N)cc4)CCO[C@H]32)[C@H](C)Cl)C(O)[C@@H](O)[C@H]1O` (stereo partly shown) [FSA-512081b], which MIC is on record?
Its MIC is 8 µg/mL (≈ 14.8 µM).

For `CSC1O[C@H]([C@H](NC(=O)[C@H]2NC[C@@H]3CC(NCc4ccc(F)cc4)CCO[C@H]32)[C@H](C)Cl)C(O)[C@@H](O)[C@H]1O` (stereo partly shown) [FSA-510074], which MIC is on record?
Its MIC is greater than 64 µg/mL.

System: E. coli MP-74 LptD mutant
Assay: MIC determination
Type: cell-based
Settings: Escherichia coli

How did the MIC turn out when `CSC1O[C@H]([C@H](NC(=O)[C@H]2NC[C@@H]3C[C@H](c4ccc(C#N)cc4)CCO[C@H]32)[C@H](C)Cl)C(O)[C@@H](O)[C@H]1O` (stereo partly shown) [FSA-512081b] was run?
The MIC was 32 µg/mL (≈ 59.3 µM).

How did the MIC turn out when `CSC1O[C@H]([C@H](NC(=O)[C@H]2NC[C@@H]3CC(NCc4ccc(F)cc4)CCO[C@H]32)[C@H](C)Cl)C(O)[C@@H](O)[C@H]1O` (stereo partly shown) [FSA-510074] was run?
The MIC was greater than 64 µg/mL.

System: H. influenzae ATCC 49247
Assay: MIC determination
Type: cell-based
Settings: Haemophilus influenzae, ATCC49247

How did the MIC turn out when `CSC1O[C@H]([C@H](NC(=O)[C@H]2NC[C@@H]3C[C@H](c4ccc(C#N)cc4)CCO[C@H]32)[C@H](C)Cl)C(O)[C@@H](O)[C@H]1O` (stereo partly shown) [FSA-512081b] was run?
Its MIC is 16 µg/mL (≈ 29.6 µM).

For `CSC1O[C@H]([C@H](NC(=O)[C@H]2NC[C@@H]3CC(NCc4ccc(F)cc4)CCO[C@H]32)[C@H](C)Cl)C(O)[C@@H](O)[C@H]1O` (stereo partly shown) [FSA-510074], which MIC is on record?
Its MIC is greater than 64 µg/mL.
